Article PMC3220680, “Microsecond Molecular Dynamics Simulations of Intrinsically Disordered Proteins Involved in the Oxidative Stress Response” (PLoS ONE, 2011)
Read-outs that look alike come from different tables or passages of the source. Blank lines part the entries; values can stand above or below the molecule they belong to.

Tests used:
[1] = system: Keap1; conditions: cited from earlier work; for competition with full-length Nrf2 for binding to Keap1: compared with 10-mer peptide (LDEETGEFLP), ref [79]
[2] = biological target: Kelch domain of Keap1; conditions: ITC; ref [79]; cited from earlier work
[3] = system: Kelch domain of mouse Keap1 (residues 324–612); assay: ITC binding of mouse peptides to Kelch domain of Keap1
Protocol: The Kelch domain (residues 324–612) of mouse Keap1 was expressed in Escherichia coli BL21 (DE3) grown in minimal M9 medium. The N-terminally His-tagged protein was purified by affinity chromatography using Ni Sepharose™ 6 Fast Flow beads (Amersham Biosciences). The tag was then cleaved by incubation with His-tagged tobacco etch virus (TEV) protease overnight at 25°C. The protein product was purified by passing the mixture through Ni Sepharose™ 6 Fast Flow beads (Amersham Biosciences).
ITC experiments were performed on a VP-ITC system (MicroCal) at 25°C. The Kelch domain was dialyzed against 50 mM phosphate buffer at pH 7, containing 100 mM NaCl and 1 mM DTT. Mouse ProTα (Ala-39 to Asp-54) and Neh2 (Leu-76 to Leu-84) peptides (GenScript) were also dissolved in the same buffer. All samples were filtered and degassed before the ITC experiments. […] Heat changes after saturation were used to account for the heat of dilution. The binding stoichiometries (n), enthalpy changes (ΔH), binding constants (Ka), Gibbs free energy changes (ΔG) and entropy changes (ΔS) were calculated using the titration data.
Supplementary file pone.0027371.s006.tif: Figure S4 Isothermal titration calorimetry (ITC) measurements. […] (Upper) The raw data of two ITC experiments each performed at 25°C. (Lower) The integrated heat changes, corrected for the heat of dilution, and the fitted curve assuming single-site binding. (TIF) Click here for additional data file.

[4] = system: Nrf2-targeted cytoprotective genes; conditions: ref [49], [50]; cited from earlier work
From the text: The Keap1-binding motif of ProTα (-NEENGE-) shares a similar sequence with that of the Neh2 ...

[5] = biological target: Keap1 Kelch (Homo sapiens) (UniProt Q14145); assay: ITC; conditions: cited from earlier work
[6] = biological target: Keap1 Kelch (Mus musculus) (UniProt Q9Z2X8); conditions: cited from earlier work
[7] = biological target: Keap1 Kelch (Mus musculus) (UniProt Q9Z2X8); assay: ITC; conditions: cited from earlier work
[8] = biological target: T1, Kelch domain (residues 324–612) of mouse Keap1 (mouse, UniProt Q9Z2X8 324-612); assay: ITC; VP-ITC (MicroCal), 25°C; 5 µL aliquots of 0.5 mM peptide titrated into 1.4 mL of 0.05 mM Kelch in the cell; 50 mM phosphate pH 7, 100 mM NaCl, 1 mM DTT; single-site fit; conditions: both partners purified
T1 construct: Kelch domain of Kelch-like ECH-associated protein 1 (Keap1), mouse, residues 324-612; His tag cleaved with TEV protease; also called Kelch-like ECH-associated protein 1; source: Escherichia coli BL21 (DE3) in minimal M9 medium, purified (Ni Sepharose, TEV cleavage, second Ni Sepharose pass); not shown: His tag, N-terminal, cleaved

[9] = ITC, T = 298 K, pH 7, 50 mM phosphate, 100 mM NaCl, 1 mM DTT

T1 sequence (Q9Z2X8 324-612): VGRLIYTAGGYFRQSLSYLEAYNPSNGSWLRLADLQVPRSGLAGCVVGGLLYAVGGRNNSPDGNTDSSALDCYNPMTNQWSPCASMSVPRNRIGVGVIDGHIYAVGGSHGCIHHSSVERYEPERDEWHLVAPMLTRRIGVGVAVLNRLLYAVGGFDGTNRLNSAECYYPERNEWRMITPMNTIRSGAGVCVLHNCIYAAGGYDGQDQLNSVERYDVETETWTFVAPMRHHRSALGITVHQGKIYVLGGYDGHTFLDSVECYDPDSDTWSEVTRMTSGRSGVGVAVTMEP
Sequence of Keap1 Kelch (Mus musculus) (Q9Z2X8 309-624): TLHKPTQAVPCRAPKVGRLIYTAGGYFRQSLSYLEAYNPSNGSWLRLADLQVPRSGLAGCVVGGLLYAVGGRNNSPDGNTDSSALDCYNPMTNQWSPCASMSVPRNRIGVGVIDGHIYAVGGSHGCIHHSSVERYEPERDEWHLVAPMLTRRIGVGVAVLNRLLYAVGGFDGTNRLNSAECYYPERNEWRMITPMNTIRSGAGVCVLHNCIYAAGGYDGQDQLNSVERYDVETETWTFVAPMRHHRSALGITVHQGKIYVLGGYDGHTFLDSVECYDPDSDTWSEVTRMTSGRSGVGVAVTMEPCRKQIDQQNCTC
Sequence of Keap1 Kelch (Homo sapiens) (Q14145 321-609): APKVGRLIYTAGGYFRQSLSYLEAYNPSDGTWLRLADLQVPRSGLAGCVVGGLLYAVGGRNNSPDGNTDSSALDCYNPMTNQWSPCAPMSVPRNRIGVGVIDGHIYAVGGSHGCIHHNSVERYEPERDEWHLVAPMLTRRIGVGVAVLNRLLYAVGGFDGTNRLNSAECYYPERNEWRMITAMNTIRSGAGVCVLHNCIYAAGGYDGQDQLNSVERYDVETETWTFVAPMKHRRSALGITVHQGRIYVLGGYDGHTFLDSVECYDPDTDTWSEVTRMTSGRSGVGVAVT

Molecule: AFFAQLQLDEETGEFL
competition with full-length Nrf2 for binding to Keap1 [1]: could compete with full-length Nrf2 for binding to Keap1 much better than a 10-mer peptide (LDEETGEFLP)
Kd [2]: ~20 nM

Ka (binding constant) ([3]; ITC (VP-ITC), 25°C (T = 298 K), 50 mM phosphate pH 7, 100 mM NaCl, 1 mM DTT, 0.5 mM peptide titrated into 0.05 mM Kelch, single-site fit): 2.4 ± 0.1 10^6 M^−1
TΔS (entropy change upon binding) [3, 9]: -10.20 kcal/mol
ΔG (Gibbs free energy change upon binding) [3, 9]: -8.70 ± 0.02 kcal/mol
Molecule: AQNEENGEQEADNEVD [16-mer ProTα peptide, Mouse ProTα (Ala-39 to Asp-54) peptide (GenScript)]
relative binding to Keap1 ([3]; 16-mer ProTα vs Neh2 peptide with the same length, own ITC compared with ref [79]): interacts more weakly with Keap1 compared to the Neh2 peptide with the same length

Molecule: LQLDEETGEFLPIQ
competition with full-length Nrf2 for binding to Keap1 [1]: could compete with full-length Nrf2 for binding to Keap1 much better than a 10-mer peptide (LDEETGEFLP)

Molecule: MSDAAVDTSSEITTKDLKEKKEVVEEAENGRDAPANGNAQNEENGEQEADNEVDEEEEEGGEEEEEEEEGDGEEEDGDEDEEAEAPTGKRVAEDDEDDDVDTKKQKTEEDD [Full-length ProTα, Prothymosin alpha, full-length mouse ProTα protein, simulated]
competition with Nrf2 for binding to Keap1 ([1]; ref [49], [50]): can compete with Nrf2 for binding to Keap1
Nrf2-targeted cytoprotective genes [4]: upregulation of Nrf2-targeted cytoprotective genes

Molecule: Nrf2 16-mer peptide 16-mer ETGE peptide (from UniProt Q16236)
Kd [5]: 20 nM

Molecule: Nrf2 Neh2 (DLG motif) Neh2 (from UniProt Q60795)
Kd [6]: 500 nM

Molecule: Nrf2 Neh2 (ETGE motif) Neh2 (from UniProt Q60795)
Kd [7]: 8 nM

Ka [8]: 2.4e+06 ± 0.1 M⁻¹
dH [8]: -18.9 ± 0.1 kcal/mol
stoichiometry N [8]: 1.03
B1: 16-mer ProTα peptide (mouse), Ala-39 to Asp-54 (peptide)
peptide: AQNEENGEQEADNEVD
notes: Prothymosin alpha (ProTα), mouse, residues 39-54; also called Prothymosin alpha peptide; source: synthetic peptide; bought: GenScript
